Laboratory results taken from patent US8426387B2, “Treatments for cancer” (priority 2006, dated 2013).

Experiments:
[1] = tested on: DU-145 androgen receptor negative human prostate cell line
Procedure: (§1) The relationship between diet and cancer is an active area of investigation. […] Fruits and vegetables are known to be good sources of dietary boron. To explore a possible cellular mechanism for the effect of boron on prostate cancer 1 mM boric acid was added to several cancer cell lines; three human prostate, and for comparison, five human breast cell lines.

DU-145 = conditions: 1 mM boric acid
Procedure: as §1

DU-145 cell line = conditions: 1 mM boron
Procedure: as §1

[2] = tested on: androgen receptor positive and receptor negative human prostate cancer cell lines; conditions: 1 mM boric acid; RPMI1640 media
Procedure: as §1

[3] = tested on: estrogen receptor negative human breast cancer cell lines; conditions: 1 mM boric acid; two cell lines; MEM supplemented with 10% FBS and 25 mM HEPES
Procedure: as §1

[4] = tested on: a breast cancer cell line; conditions: 1 mM boron
Procedure: as §1

[5] = tested on: estrogen receptor positive cell lines; experiment: cells
Procedure: as §1

[6] = target: T1, DU145 cell surface-bound uPA (Homo sapiens, UniProt P00749); conditions: DU145 cells; read-out: Ki value in cell surface-mediated plasminogen activation; cited from earlier work
T1 construct: endogenous in cells; host or cells: DU145 prostate carcinoma cells

Molecule | growth ([1]; 1 mM boric acid, supplemented RPMI media) | reversibility of growth inhibition ([1]; boric acid removed on Day 3, cell growth resumed by Day 6) | cell cycle block or apoptosis (DU-145) | apoptosis or necrosis (DU-145 cell line) | growth response [2] | growth inhibition [3] | apoptosis or necrosis [4] | growth inhibition ([5]; 1 mM boric acid, two estrogen receptor positive cell lines, MEM media or RPMI1640, supplemented) | inhibition at 1000 µM ([5]; Homo sapiens, 216 h, read-out: inhibition in growth) | apoptosis by flow cytometry ([5]; third estrogen receptor positive breast cancer cell line, preliminary results) | Ki [6]
OB(O)O [boric acid] | completely arrested | reversible | does not block the cell cycle or induce apoptosis | does not induce apoptosis or necrosis | failed to show a response | did not show growth inhibition | does not induce apoptosis or necrosis | failed to exhibit growth inhibition | 20% | may be inducing apoptosis | 
rMaspin(i): Purified recombinant maspin produced in baculovirus-infected Spodoptera frugiperda Sf9 insect cells (protein, UniProt P36952 1-375, looked up, recombinant, Sf9 baculovirus-expressed, Purified recombinant maspin produced in baculovirus-infected Spodoptera frugiperda Sf9 insect cells) Serpin B5: MDALQLANSAFAVDLFKQLCEKEPLGNVLFSPICLSTSLSLAQVGAKGDTANEIGQVLHFENVKDVPFGFQTVTSDVNKLSSFYSLKLIKRLYVDKSLNLSTEFISSTKRPYAKELETVDFKDKLEETKGQINNSIKDLTDGHFENILADNSVNDQTKILVVNAAYFVGKWMKKFSESETKECPFRVNKTDTKPVQMMNMEATFCMGNIDSINCKIIELPFQNKHLSMFILLPKDVEDESTGLEKIEKQLNSESLSQWTNPSTMANAKVKLSIPKFKVEKMIDPKACLENLGLKHIFSEDTSDFSGMSETKGVALSNVIHKVCLEITEDGGDSIEVPGARILQHKDELNADHPFIYIIRHNKTRNIIFFGKFCSP |  |  |  |  |  |  |  |  |  |  | 20 nM
